Earlier results in patent US20250000936A1, “TREATMENT OF GEOGRAPHIC ATROPHY” (Apellis Pharmaceuticals, Inc., priority 2021, published 2025).

Tested on: complement activation
Details: complement inhibiting activity relative to C-terminally amidated compstatin; cited from earlier work

Substance | Activity over compstatin [xmore]
Ac-ICV(1-Nal)QDWGAHRCT-COOH (N-acetyl, 1-Nal) [Ac V4(1-Nal)/H9A-OH] | 30
Ac-ICV(2-Igl)QDWGAHRCT-CONH2 (N-acetyl, C-amide, 2-Igl) [Ac-V42Igl/H9A] | 39
Ac-ICV(2-Igl)QDWGAHRCT-COOH (N-acetyl, 2-Igl) [Ac-V42Igl/H9A-OH] | 37
Ac-ICV(2-Nal)QDWGAHRCT-CONH2 (N-acetyl, C-amide, 2-Nal) [Ac-V4(2-Nal)/H9A] | 99
Ac-ICV(2-Nal)QDWGAHRCT-COOH (N-acetyl, 2-Nal) [Ac V4(2-Nal)/H9A-OH] | 38
Ac-ICV(Bpa)QDWGAHRCT-CONH2 (N-acetyl, C-amide, Bpa) [Ac-V4(Bpa)/H9A] | 86
Ac-ICV(Bpa)QDWGAHRCT-COOH (N-acetyl, Bpa) [Ac-V4(Bpa)/H9A-OH] | 49
Ac-ICVDhtQDWGAHRCT-COOH [Ac-V4Dht/H9A-OH] | 5
Ac-ICVVQDWGHHRCT-CONH2 [Ac-compstatin] | 3
Ac-ICVWQD(5fW)GAHRCT-CONH2 [Ac-V4W/W7(5fW)/H9A] | 121
Ac-ICVWQDWGAHRCT-CONH2 (Ac-ICVWQDWGAHRCT-NH2; cysteine pairing not given here) [Ac-V4W/H9A] | 45
Ac-ICVWQDWGAHRCdT-COOH [Ac-V4W/H9A/T13dT-OH] | 55
Ac-ICVYQDWGAHRCT-CONH2 [Ac-V4Y/H9A] | 14
H-GICV(6fW)QD(6fW)GAHRCTN-COOH (6-fluoro-Trp residues) [+G/V4(6fW)/W7(6fW)H9A+N-OH] | 126
